Laboratory results published in patent publication US20240123012A1 (priority 2021, published 2024).

Target: human recombinant DHODH (rhDHODH) (Homo sapiens, UniProt Q02127)
Experiment: Inhibition of the activity of rh DHODH on its colorimetric substrate (OD at 600 nm)
Type: biochemical
Procedure: This mother tincture constitutes the sample to be tested. The measurement of the inhibition of the action of DHODH on its substrate is carried out in a conventional multi-well plate with a transparent wall. The wells contain the samples to be tested, the DHODH and its substrate.
To evaluate the inhibition of the DHODH by the sample, the parameter of the optical density called “OD” is used. Indeed, in each well, the “OD” is measured at a wavelength of 600 nm, at several time intervals, for a duration of 5 min.
More specifically, each well comprises the diluted or non-diluted sample, the enzyme of the DHODH and its colorimetric substrate diluted in a test buffer. Said colorimetric substrate comprises DHO which can be converted into ORO by action of the DHODH.
Over time, the consumption of the colorimetric substrate DHO by the enzyme DHODH results in a reduction in the OD. This decrease indicates the conversion of the colored DHO into uncolored ORO by the activity of the DHODH. In other words, the DHO is consumed, […] to ORO by the activity of the DHODH, which causes a modification of the OD measured.
In the event of inhibition of the activity of the DHODH by the sample, the OD remains stable over time. Indeed, in the case of inhibition, the colorimetric DHO substrate will not be transformed by the DHODH into ORO, the OD therefore will remain that of the initial DHO.
To carry out the experiments, the following were used: • a solution of class 1 enzyme called “rhDHODH” for “human recombinant DHODH”, • a test buffer consisting of 50 mM Tris, 150 mM KCl and 0.1% Triton® X-100, at pH 8, • a substrate mixture of DHODH containing: 2 mM of L-dihydroorotic called “DHO”, 0.2 mM of decylubiquinone called “Q” and 0.12 mM of 2,6-Dichloroindophenol sodium salt hydrate called “DP IP” in the test buffer, • a mother tincture sample of a leaf extract of a Neurolaena lobata plant, diluted or not, in a dilution buffer consisting of dimethyl sulfoxide called “DMSO”.
To start the protocol, each dilution of the sample H1 or H2 was placed in the presence of the rh DHODH enzyme and the mixture of substrate within a well. In order to obtain an average of OD measured for a sample concentration H1 or H2, triplicates were carried out for each of the dilution concentrations of H1 and H2.
The amount of enzyme added in each well is the same. In the protocol, the enzyme is added to the well so as to have a concentration of 0.06 μg of rh DHODH enzyme/mL of total solution in the well.
% of activity=(ΔH1×100)/Δ of the negative control.
The % of inhibition is calculated by the following formula: 100—the value of the % of activity.

Chain of human recombinant DHODH (rhDHODH) (Q02127 whole entry): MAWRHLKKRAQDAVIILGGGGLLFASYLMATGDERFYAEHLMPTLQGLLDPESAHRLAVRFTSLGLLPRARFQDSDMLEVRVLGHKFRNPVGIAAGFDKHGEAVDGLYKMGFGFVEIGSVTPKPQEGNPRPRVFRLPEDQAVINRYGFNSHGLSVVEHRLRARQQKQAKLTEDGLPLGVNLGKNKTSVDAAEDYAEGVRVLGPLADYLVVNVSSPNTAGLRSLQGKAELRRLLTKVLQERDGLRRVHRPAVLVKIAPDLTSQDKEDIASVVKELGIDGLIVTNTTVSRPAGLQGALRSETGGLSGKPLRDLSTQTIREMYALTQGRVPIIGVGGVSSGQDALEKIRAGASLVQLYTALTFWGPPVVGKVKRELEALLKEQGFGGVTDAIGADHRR

Work on Cc1c(-c2ccc(-c3ccccc3F)cc2)nc2ccc(F)cc2c1C(=O)O [brequinar] yielded an activity at 0.001 µg/mL of 6.25%, an activity at 0.01 µg/mL of 7.21% and an activity at 0.1 µg/mL of 0%. The activity at 1 µg/mL was 0%, the “Δ (OD at 0 s minus OD at 275 s)” value (0.001 μg/mL) was 0.013 and the inhibition at 0.001 µg/mL (0.001 μg/mL, 0-275 s) was 93.8%. The “OD at 600 nm” value (0.001 μg/mL, 0 s) was 0.339, the “OD at 600 nm” value (0.001 μg/mL, 55 s) was 0.340 and the “OD at 600 nm” value (0.001 μg/mL, 110 s) was 0.333. The “OD at 600 nm” value (0.001 μg/mL, 165 s) was 0.331, the “OD at 600 nm” value (0.001 μg/mL, 220 s) was 0.328 and the “OD at 600 nm” value (0.001 μg/mL, 275 s) was 0.326. The “Δ (OD at 0 s minus OD at 275 s)” value (0.01 μg/mL) was 0.015, the inhibition at 0.01 µg/mL (0.01 μg/mL, 0-275 s) was 92.8% and the “OD at 600 nm” value (0.01 μg/mL, 0 s) was 0.344. The “OD at 600 nm” value (0.01 μg/mL, 55 s) was 0.345, the “OD at 600 nm” value (0.01 μg/mL, 110 s) was 0.339 and the “OD at 600 nm” value (0.01 μg/mL, 165 s) was 0.336. For the same molecule, the “OD at 600 nm” value (0.01 μg/mL, 220 s) was 0.348, the “OD at 600 nm” value (0.01 μg/mL, 275 s) was 0.329 and the “Δ (OD at 0 s minus OD at 275 s)” value (0.1 μg/mL) was 0.000. For the same molecule, the inhibition at 0.1 µg/mL (0.1 μg/mL, 0-275 s) was 100%, the “OD at 600 nm” value (0.1 μg/mL, 0 s) was 0.349 and the “OD at 600 nm” value (0.1 μg/mL, 55 s) was 0.348. The “OD at 600 nm” value (0.1 μg/mL, 110 s) was 0.353, the “OD at 600 nm” value (0.1 μg/mL, 165 s) was 0.345 and the “OD at 600 nm” value (0.1 μg/mL, 220 s) was 0.350. The “OD at 600 nm” value (0.1 μg/mL, 275 s) was 0.349, the “Δ (OD at 0 s minus OD at 275 s)” value (1 μg/mL) was 0.001 and the inhibition at 1 µg/mL (1 μg/mL, 0-275 s) was 100%. The “OD at 600 nm” value (1 μg/mL, 0 s) was 0.354, the “OD at 600 nm” value (1 μg/mL, 55 s) was 0.354 and the “OD at 600 nm” value (1 μg/mL, 110 s) was 0.352. The “OD at 600 nm” value (1 μg/mL, 165 s) was 0.361, the “OD at 600 nm” value (1 μg/mL, 220 s) was 0.357 and the “OD at 600 nm” value (1 μg/mL, 275 s) was 0.353.
